The subject of series [1] is blood platelets (platelet-rich plasma). The series is described as follows: Test for the inhibition of platelet aggregation (collagen-induced, platelet-rich plasma). Format: cell-based, male white rabbits. Conditions: Oryctolagus cuniculus, Platelet, 0.05 h; depressing ratio of 50% of collagen-induced aggregation; compound 3 minutes before; read-out: Antiplatelet aggregation activity: MED. The essentials:
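Citrated carotid blood from male white rabbits (2–2.5 kg) spun at 1,000 rpm for 15 min to give PRP. Compound added 3 min before collagen, dosed to give 50% aggregation in the presence of 100 γ/ml aspirin; aggregation followed by aggregometer, activity scored as 50% depression versus collagen alone.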

Series [2] has as its system isolated ileum of guinea-pig. In words: Test for anticholinergic effects on the isolated ileum of guinea-pig (acetylcholine contraction, in vitro). Conditions: Cavia porcellus, 0.05 h; depressing ratio of 80% or more of acetylcholine contraction; compound 3 minutes before; read-out: Anticholinergic activity: MED (minimum effective dose). Also noted: species or system guinea-pig (male Hartly-strain). In a few lines: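 Ileum segments from male Hartley guinea-pigs (~250 g), 2-3 cm, in Tyrode's at 32±1° C, aerated. Contraction evoked by acetylcholine (0.1 ml of 10^-3 g/ml), recorded by kymograph, before and 3 minutes after test compound addition.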

The nature of the next series: Antiasthmatic activity. Format: in vivo. Conditions: po; read-out: Antiasthmatic activity: MED.
The test system of another series is male dd-strain rats. In words: Acute toxicity test (minimum lethal dose). The series is classed as in vivo. Conditions: mortality for 7 days. How it is done: Groups of male dd-strain rats (each group consisting of five rats) weighing 20±1 g were used. The compounds of the present invention were administered orally (po: 0.3 mg/g) or intraperitoneally (ip: 0.1 mg/g). The MLD (minimum lethal dose) was calculated from the mortality for 7 days after the administration to obtain the results given in Table 1.

Series [3] concerns isolated ileum of guinea-pig. In words: Test for antihistaminergic effects on the isolated ileum of guinea-pig (histamine contraction, in vitro). Also noted: species or system guinea-pig (male Hartly-strain). Conditions: Cavia porcellus, 0.05 h; depressing ratio of 80% or more of histamine contraction; read-out: Antihistaminergic activity: MED. The essentials:
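Ileum segments from male Hartley guinea-pigs (~250 g) suspended in Tyrode's solution at 32±1 °C, contractions recorded on kymograph. Test compound given 3 min before agonist challenge with 0.1 ml histamine at 5×10^-3 g/l.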

Regarding `CCc1ccc2c(c1)C(NCCN(CC)CC)c1ccccc1CO2` (stereo not drawn) [Compound 1, 2-ethyl-11-{2-(diethylamino)ethyl}amino-6,11-dihydrodibenz[b,e]oxepin], the minimal effective concentration was determined as 20 µg/mL in series [1], 1 µg/mL in series [2] and 1 µg/mL in series [3]. Moreover, the minimal effective dose in “Antiasthmatic activity” was found to be 50 mg/kg. The “Acute toxicity: MLD (minimum lethal dose)” value (“Acute toxicity: MLD” for short) in the series with male dd-strain rats (ip) was greater than 100 mg/kg; with male dd-strain rats (po), greater than 300 mg/kg.
Take `Clc1ccc2c(c1)C(NC1CN3CCC1CC3)c1ccccc1CO2` (stereo not drawn) [Compound 23, 2-chloro-11-(3-quinuclidinyl)amino-6,11-dihydrodibenz[b,e]oxepin]: the minimal effective concentration in series [1] was 100 µg/mL; in series [2], 1 µg/mL; in series [3], 0.3 µg/mL. The minimal effective dose in “Antiasthmatic activity” is 50 mg/kg. Further, the “Acute toxicity: MLD” value in the series with male dd-strain rats (ip) is given as 100 mg/kg; with male dd-strain rats (po) it was 300 mg/kg.
Regarding `COc1ccc2c(c1)C(N1CCN(C)CC1)c1ccccc1CO2` (stereo not drawn) [Compound 68, 2-methoxy-11-(4-methyl-1-piperazinyl)-6,11-dihydrodibenz[b,e]oxepin], the minimal effective concentration was determined as 100 µg/mL in series [1], 10 µg/mL in series [2] and 3 µg/mL in series [3]. Also, the minimal effective dose in the series “Antiasthmatic activity” was 100 mg/kg. The “Acute toxicity: MLD” value amounted to 100 mg/kg in the series on male dd-strain rats (ip) and 200 mg/kg with male dd-strain rats (po).
As to `Cc1ccc2c(c1)C(NCCCN(C)C)c1ccccc1CO2` (stereo not drawn) [Compound 14, 2-methyl-11-{3-(dimethylamino)propyl}amino-6,11-dihydrodibenz[b,e]oxepin], the values for the minimal effective concentration in series [1], in series [2] and in series [3] were 20 µg/mL, 10 µg/mL and 10 µg/mL, respectively. Besides, the minimal effective dose in the series “Antiasthmatic activity” was determined as 100 mg/kg. Also, the “Acute toxicity: MLD” value was greater than 100 mg/kg in the series on male dd-strain rats (ip) and greater than 300 mg/kg in the series with male dd-strain rats (po).
Regarding `CCC(C)c1ccc2c(c1)C(NC1CN3CCC1CC3)c1ccccc1CO2` (stereo not drawn) [Compound 51, 2-(1-methyl)propyl-11-(3-quinuclidinyl)amino-6,11-dihydrodibenz[b,e]oxepin], the minimal effective concentration in series [1] was 50 µg/mL; in series [2], 1 µg/mL; in series [3], 0.3 µg/mL. For the same compound, in the series “Antiasthmatic activity”, the minimal effective dose came out at 50 mg/kg. The “Acute toxicity: MLD” value was 100 mg/kg with male dd-strain rats (ip) and greater than 300 mg/kg in the series with male dd-strain rats (po).
As to `CCc1ccc2c(c1)C(NC1CN3CCC1CC3)c1ccccc1CO2` (stereo not drawn) [Compound 21, 2-ethyl-11-(3-quinuclidinyl)amino-6,11-dihydrodibenz[b,e]oxepin], the minimal effective concentration in series [1] worked out at 50 µg/mL; in series [2] it was 0.1 µg/mL; in series [3], 0.1 µg/mL. The minimal effective dose in “Antiasthmatic activity” turned out to be 25 mg/kg. The “Acute toxicity: MLD” value in the series with male dd-strain rats (ip) is on record as 100 mg/kg; in the series with male dd-strain rats (po) it was 300 mg/kg.
For the compound `Cc1ccc2c(c1)C(NCCN1CCCC1)c1ccccc1CO2` (stereo not drawn) [Compound 58, 2-methyl-11-{2-(1-pyrrolidinyl)ethyl}amino-6,11-dihydrodibenz[b,e]oxepin], the minimal effective concentration in series [1] is 50 µg/mL; in series [2], 3 µg/mL; in series [3], 0.1 µg/mL. Further, in “Antiasthmatic activity”, the minimal effective dose is 25 mg/kg. Moreover, the “Acute toxicity: MLD” value was greater than 100 mg/kg in the series on male dd-strain rats (ip) and 300 mg/kg with male dd-strain rats (po).
For `Cc1ccc2c(c1)C(NC1CN3CCC1CC3)c1ccccc1CO2` (stereo not drawn) [Compound 20, 2-methyl-11-(3-quinuclidinyl)amino-6,11-dihydrodibenz[b,e]oxepin], the values for the minimal effective concentration in series [1], in series [2] and in series [3] were 100 µg/mL, 1 µg/mL and 0.1 µg/mL, respectively. In “Antiasthmatic activity”, the minimal effective dose was 50 mg/kg. In addition, the “Acute toxicity: MLD” value in the series with male dd-strain rats (ip) is 50 mg/kg; in the series on male dd-strain rats (po), 300 mg/kg.
Consider `Cc1ccc2c(c1)C(NCCN(C)C)c1ccccc1CO2` (stereo not drawn) [Compound 16, 2-methyl-11-{2-(dimethylamino)ethyl}amino-6,11-dihydrodibenz[b,e]oxepin], for which the figures for the minimal effective concentration in series [1], in series [2] and in series [3] were 50 µg/mL, 3 µg/mL and 10 µg/mL, respectively. Moreover, the minimal effective dose in “Antiasthmatic activity” was 25 mg/kg. The “Acute toxicity: MLD” value was greater than 100 mg/kg with male dd-strain rats (ip) and 300 mg/kg with male dd-strain rats (po).
Take `CN(C)CCNC1c2ccccc2COc2ccc(F)cc21` (stereo not drawn) [Compound 18, 2-fluoro-11-{2-(dimethylamino)ethyl}amino-6,11-dihydrodibenz[b,e]oxepin]: the minimal effective concentration in series [1] was 50 µg/mL; in series [2], 0.3 µg/mL; in series [3], 0.3 µg/mL. For the same compound, the minimal effective dose in “Antiasthmatic activity” amounted to 10 mg/kg. In addition, the “Acute toxicity: MLD” value is greater than 100 mg/kg in the series on male dd-strain rats (ip) and greater than 300 mg/kg in the series on male dd-strain rats (po).
With `CCN(CC)CCNC1c2ccccc2COc2ccc(OC)cc21` (stereo not drawn) [Compound 13, 2-methoxy-11-{2-(diethylamino)ethyl}amino-6,11-dihydrodibenz[b,e]oxepin], the minimal effective concentration stood at 20 µg/mL in series [1], 1 µg/mL in series [2] and 0.3 µg/mL in series [3]. Besides, the minimal effective dose in “Antiasthmatic activity” came to 100 mg/kg. For the same compound, the “Acute toxicity: MLD” value in the series on male dd-strain rats (ip) is greater than 100 mg/kg; in the series with male dd-strain rats (po) it was greater than 300 mg/kg.
Turning to `CC(C)(C)c1ccc2c(c1)C(NC1CN3CCC1CC3)c1ccccc1CO2` (stereo not drawn) [Compound 52, 2-(1,1-dimethyl)ethyl-11-(3-quinuclidinyl)amino-6,11-dihydrodibenz[b,e]oxepin], the minimal effective concentration in series [1] was determined as 1 µg/mL; in series [2] it was 3 µg/mL; in series [3], 0.3 µg/mL. Further, in “Antiasthmatic activity”, the minimal effective dose turned out to be 50 mg/kg. The “Acute toxicity: MLD” value with male dd-strain rats (ip) was 100 mg/kg; with male dd-strain rats (po), greater than 300 mg/kg.
In the case of `CCC(C)c1ccc2c(c1)C(NCCN(CC)CC)c1ccccc1CO2` (stereo not drawn) [Compound 11, 2-(1-methyl) propyl-11-{2-(diethylamino)ethyl}amino-6,11-dihydrodibenz[b,e]oxepin], the minimal effective concentration in series [1] is 10 µg/mL; in series [2], 0.03 µg/mL; in series [3], 0.3 µg/mL. Further, the minimal effective dose in the series “Antiasthmatic activity” amounted to 100 mg/kg. Further, the “Acute toxicity: MLD” value is reported as 100 mg/kg with male dd-strain rats (ip) and greater than 300 mg/kg in the series on male dd-strain rats (po).
With `CN1CCN(C2c3ccccc3COc3ccc(F)cc32)CC1` (stereo not drawn) [Compound 69, 2-fluoro-11-(4-methyl-1-piperazinyl)-6,11-dihydrodibenz[b,e]oxepin], the minimal effective concentration in series [1] was 100 µg/mL; in series [2], 3 µg/mL; in series [3], 10 µg/mL. Further, the minimal effective dose in “Antiasthmatic activity” was determined as 100 mg/kg. The “Acute toxicity: MLD” value in the series with male dd-strain rats (ip) is greater than 100 mg/kg; with male dd-strain rats (po), 100 mg/kg.
On to `CCN(CC)CCNC1c2ccccc2COc2ccc(C)cc21` (stereo not drawn) [Compound 8, 2-methyl-11-{2-(diethylamino)ethyl}amino-6,11-dihydrodibenz[b,e]oxepin], for which the figures for the minimal effective concentration in series [1], in series [2] and in series [3] were 20 µg/mL, 10 µg/mL and 1 µg/mL, respectively. Besides, the minimal effective dose in “Antiasthmatic activity” came to 25 mg/kg. Also, the entries for the “Acute toxicity: MLD” value in the series with male dd-strain rats (ip) and in the series on male dd-strain rats (po) were greater than 100 mg/kg and 200 mg/kg, respectively.

The record behind these values is US4396550A, “Dibenz [b,e] oxepin derivatives” (Kyowa Hakko Kogyo Co., Ltd., priority 1980, dated 1983).
